Earlier results, collected in patent US9950112B2 (priority 2010, dated 2018).

What was measured:
[1] = propofol concentration, human surgical patients, general anesthesia
[2] = morphine during early resuscitation following serious injuries; reduced from 76%

Row | Compound | EC50 for awakening [1] | EC50 for orientation [1] | incidence of post-traumatic stress disorder (PTSD) [2]
1 | CC(C)c1cccc(C(C)C)c1O [propofol] | 1.07 ± 0.13 µg/mL | 0.95 ± 0.19 µg/mL | –
2 | CN1CC[C@]23c4c5ccc(O)c4O[C@H]2[C@@H](O)C=C[C@H]3[C@H]1C5 [morphine] | – | – | 61%
